A value given as a limit tells only on which side of the number the result lay.

T1 sequence (P30291 whole entry): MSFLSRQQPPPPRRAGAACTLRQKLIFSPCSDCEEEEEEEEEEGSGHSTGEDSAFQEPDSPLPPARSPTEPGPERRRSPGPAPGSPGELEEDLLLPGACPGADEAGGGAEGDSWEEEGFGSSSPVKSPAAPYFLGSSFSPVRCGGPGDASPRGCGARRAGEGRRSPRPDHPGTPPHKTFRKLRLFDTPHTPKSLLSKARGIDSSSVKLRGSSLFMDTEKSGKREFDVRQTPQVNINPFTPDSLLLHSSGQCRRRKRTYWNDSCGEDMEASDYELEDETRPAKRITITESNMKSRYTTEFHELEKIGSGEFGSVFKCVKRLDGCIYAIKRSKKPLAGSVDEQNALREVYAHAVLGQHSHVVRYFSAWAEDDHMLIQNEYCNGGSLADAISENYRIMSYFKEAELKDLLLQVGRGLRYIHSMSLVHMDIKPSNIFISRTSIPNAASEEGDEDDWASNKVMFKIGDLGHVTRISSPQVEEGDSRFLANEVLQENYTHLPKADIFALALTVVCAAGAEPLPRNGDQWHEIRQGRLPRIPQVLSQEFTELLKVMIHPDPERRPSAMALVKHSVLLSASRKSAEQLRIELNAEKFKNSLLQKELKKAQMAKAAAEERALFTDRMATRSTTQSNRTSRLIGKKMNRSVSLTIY

This assay addresses T1, GST-tagged-Wee1 kinase (Homo sapiens, UniProt P30291).
T1 construct: purchased Carnabio (Carna Biosciences) 05-177
Description: Wee1 time-resolved fluorescence equilibrium binding assay (displacement of Oregon Green-labeled ATP-competitive kinase probe). To be noted: read-out: Wee-1 inhibition (Ki). The essentials: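 Ki values derive from competitive displacement, under equilibrium, of a fast-reversible ATP-site Oregon Green kinase probe from GST-tagged Wee1, detected by time-resolved fluorescence.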
As to `CCN(CC)CCCOc1ccc(Nc2ncc3c(=O)n(-c4c(Cl)cccc4Cl)c4nccn4c3n2)cc1F` [Example 149, 6-(2,6-dichlorophenyl)-2-({4-[3-(diethylamino)propoxy]-3-fluorophenyl}amino)imidazo[1,2-a]pyrimido[5,4-e]pyrimidin-5(6H)-one], the inhibition constant Ki is less than 10 nM.
In the case of `O=c1c2cnc(Nc3ccc(N4CCOCC4)cc3)nc2n2ccnc2n1-c1c(Cl)cccc1Cl` [Example 169, 6-(2,6-dichlorophenyl)-2-{[4-(morpholin-4-yl)phenyl]amino}imidazo[1,2-a]pyrimido[5,4-e]pyrimidin-5(6H)-one] it was less than 10 nM; in that of `CC1(C)CN(Cc2ccc(-n3ccnc3)cc2)Cc2cc(Nc3ncc4c(=O)n(-c5ccccc5Cl)c5nccn5c4n3)ccc21` [Example 163, 6-(2-chlorophenyl)-2-({2-[4-(1H-imidazol-1-yl)benzyl]-4,4-dimethyl-1,2,3,4-tetrahydroisoquinolin-7-yl}amino)imidazo[1,2-a]pyrimido[5,4-e]pyrimidin-5(6H)-one], less than 10 nM.
In the case of `O=c1c2cnc(Nc3ccc4c(c3)CC(N3CCCC3)C4)nc2n2ccnc2n1-c1c(Cl)cccc1Cl` (stereo not shown) [Example 305, 6-(2,6-dichlorophenyl)-2-{[2-(pyrrolidin-1-yl)-2,3-dihydro-1H-inden-5-yl]amino}imidazo[1,2-a]pyrimido[5,4-e]pyrimidin-5(6H)-one] it was less than 10 nM; in that of `O=c1c2cnc(Nc3ccc(N[C@H]4CN5CCC4CC5)cc3)nc2n2ccnc2n1-c1ccccc1Cl` [Example 245, 2-({4-[(3R)-1-azabicyclo[2.2.2]oct-3-ylamino]phenyl}amino)-6-(2-chlorophenyl)imidazo[1,2-a]pyrimido[5,4-e]pyrimidin-5(6H)-one], less than 10 nM.
Then `O=C1COc2ccc(Nc3ncc4c(=O)n(-c5ccccc5Cl)c5nccn5c4n3)cc2N1` [Example 19, 6-(2-chlorophenyl)-2-[(3-oxo-3,4-dihydro-2H-1,4-benzoxazin-6-yl)amino]imidazo[1,2-a]pyrimido[5,4-e]pyrimidin-5(6H)-one], with 10 to 100 nM; and `CN1C(C)(C)c2ccc(Nc3ncc4c(=O)n(-c5ccccc5Cl)c5nccn5c4n3)cc2C1(C)C` [Example 147, 6-(2-chlorophenyl)-2-[(1,1,2,3,3-pentamethyl-2,3-dihydro-1H-isoindol-5-yl)amino]imidazo[1,2-a]pyrimido[5,4-e]pyrimidin-5(6H)-one], with less than 10 nM.
Take `CN1CCN(CCc2ccc(Nc3ncc4c(=O)n(-c5c(Cl)cccc5Cl)c5nccn5c4n3)cc2)CC1` [Example 118, 6-(2,6-dichlorophenyl)-2-({4-[2-(4-methylpiperazin-1-yl)ethyl]phenyl}amino)imidazo[1,2-a]pyrimido[5,4-e]pyrimidin-5(6H)-one]: the Ki is less than 10 nM.
For the compound `CNC(=O)N1Cc2cc(Nc3ncc4c(=O)n(-c5c(F)cccc5Cl)c5nccn5c4n3)ccc2C2(CC2)C1` [Example 300, 7′-{[6-(2-chloro-6-fluorophenyl)-5-oxo-5,6-dihydroimidazo[1,2-a]pyrimido[5,4-e]pyrimidin-2-yl]amino}-N-methyl-1′H-spiro[cyclopropane-1,4′-isoquinoline]-2′(3′H)-carboxamide], the inhibition constant (Ki) was less than 10 nM.
Then `CN1CCC(NC(=O)c2ccc(Nc3ncc4c(=O)n(-c5c(Cl)cccc5Cl)c5nccn5c4n3)cc2)CC1` [Example 239, 4-{[6-(2,6-dichlorophenyl)-5-oxo-5,6-dihydroimidazo[1,2-a]pyrimido[5,4-e]pyrimidin-2-yl]amino}-N-(1-methylpiperidin-4-yl)benzamide], with less than 10 nM; and `COCCN1CCN(c2ccc(Nc3ncc4c(=O)n(-c5ccccc5Cl)c5nccn5c4n3)cc2)CC1` [Example 64, 6-(2-chlorophenyl)-2-({4-[4-(2-methoxyethyl)piperazin-1-yl]phenyl}amino)imidazo[1,2-a]pyrimido[5,4-e]pyrimidin-5(6H)-one], with less than 10 nM; and `C=CCn1c(=O)c2cnc(Nc3ccc(N4CCN(C)CC4)cc3)nc2n2ccnc12` [Example 23, 6-allyl-2-{[4-(4-methylpiperazin-1-yl)phenyl]amino}imidazo[1,2-a]pyrimido[5,4-e]pyrimidin-5(6H)-one], with more than 100 nM.
Consider `CC(C)N1C(=O)CSC1c1ccc(Nc2ncc3c(=O)n(-c4ccccc4Cl)c4nccn4c3n2)cc1` (stereo not shown) [Example 219, 6-(2-chlorophenyl)-2-({4-[4-oxo-3-(propan-2-yl)-1,3-thiazolidin-2-yl]phenyl}amino)imidazo[1,2-a]pyrimido[5,4-e]pyrimidin-5(6H)-one], for which the Ki is less than 10 nM.
In the case of `CCC(CC)CN1Cc2cc(Nc3ncc4c(=O)n(-c5ccccc5Cl)c5nccn5c4n3)ccc2C(C)(C)C1` [Example 117, 6-(2-chlorophenyl)-2-{[2-(2-ethylbutyl)-4,4-dimethyl-1,2,3,4-tetrahydroisoquinolin-7-yl]amino}imidazo[1,2-a]pyrimido[5,4-e]pyrimidin-5(6H)-one] it was 10 to 100 nM; in that of `O=c1c2cnc(Nc3ccc4c(c3)CNCC43CC3)nc2n2ccnc2n1-c1c(Cl)cc(F)cc1Cl` [Example 160, 6-(2,6-dichloro-4-fluorophenyl)-2-(2′,3′-dihydro-1′H-spiro[cyclopropane-1,4′-isoquinolin]-7′-ylamino)imidazo[1,2-a]pyrimido[5,4-e]pyrimidin-5(6H)-one], less than 10 nM; in that of `O=C1CNCCN1c1ccc(Nc2ncc3c(=O)n(-c4c(Cl)cccc4Cl)c4nccn4c3n2)cc1` [Example 174, 6-(2,6-dichlorophenyl)-2-{[4-(2-oxopiperazin-1-yl)phenyl]amino}imidazo[1,2-a]pyrimido[5,4-e]pyrimidin-5(6H)-one], less than 10 nM.
Regarding `O=C1Nc2ccc(Nc3ncc4c(=O)n(-c5c(Cl)cccc5Cl)c5nccn5c4n3)cc2C[C@@H]2CNC[C@@H]12` [Example 179, (3aS,10aS)-8-{[6-(2,6-dichlorophenyl)-5-oxo-5,6-dihydroimidazo[1,2-a]pyrimido[5,4-e]pyrimidin-2-yl]amino}-2,3,3a,5,10,10a-hexahydropyrrolo[3,4-c][1]benzazepin-4(1H)-one], the Ki is less than 10 nM.
Then `CN1CCCN(c2ccc(Nc3ncc4c(=O)n(-c5c(Cl)cccc5Cl)c5nccn5c4n3)cc2CO)CC1` [Example 121, 6-(2,6-dichlorophenyl)-2-{[3-(hydroxymethyl)-4-(4-methyl-1,4-diazepan-1-yl)phenyl]amino}imidazo[1,2-a]pyrimido[5,4-e]pyrimidin-5(6H)-one], with less than 10 nM; and `CC(C)C(=O)N1Cc2cc(Nc3ncc4c(=O)n(-c5c(Cl)cccc5Cl)c5nccn5c4n3)ccc2C2(CC2)C1` [Example 274, 6-(2,6-dichlorophenyl)-2-{[2′-(2-methylpropanoyl)-2′,3′-dihydro-1′H-spiro[cyclopropane-1,4′-isoquinolin]-7′-yl]amino}imidazo[1,2-a]pyrimido[5,4-e]pyrimidin-5(6H)-one], with less than 10 nM.
In the case of `CC(C)N1Cc2cc(Nc3ncc4c(=O)n(-c5ccccc5Cl)c5nccn5c4n3)ccc2C(C)(C)C1` [Example 144, 6-(2-chlorophenyl)-2-{[4,4-dimethyl-2-(propan-2-yl)-1,2,3,4-tetrahydroisoquinolin-7-yl]amino}imidazo[1,2-a]pyrimido[5,4-e]pyrimidin-5(6H)-one] it was less than 10 nM.
Then `O=c1c2cnc(Nc3ccc4ncsc4c3)nc2n2ccnc2n1-c1c(Cl)cccc1Cl` [Example 182, 2-(1,3-benzothiazol-6-ylamino)-6-(2,6-dichlorophenyl)imidazo[1,2-a]pyrimido[5,4-e]pyrimidin-5(6H)-one], with less than 10 nM; and `CC(C)NCCOc1ccc(Nc2ncc3c(=O)n(-c4ccccc4Cl)c4nccn4c3n2)cc1Cl` [Example 86, 6-(2-chlorophenyl)-2-({3-chloro-4-[2-(propan-2-ylamino)ethoxy]phenyl}amino)imidazo[1,2-a]pyrimido[5,4-e]pyrimidin-5(6H)-one], with less than 10 nM; and `CN(C)C1CCN(c2ccc(Nc3ncc4c(=O)n(-c5ccccc5Cl)c5nccn5c4n3)cc2)CC1` [Example 191, 6-(2-chlorophenyl)-2-({4-[4-(dimethylamino)piperidin-1-yl]phenyl}amino)imidazo[1,2-a]pyrimido[5,4-e]pyrimidin-5(6H)-one], with less than 10 nM.
Take `O=c1c2cnc(Nc3ccc(N4CCC(F)(F)CC4)cc3)nc2n2ccnc2n1-c1c(Cl)cccc1Cl` [Example 153, 6-(2,6-dichlorophenyl)-2-{[4-(4,4-difluoropiperidin-1-yl)phenyl]amino}imidazo[1,2-a]pyrimido[5,4-e]pyrimidin-5(6H)-one]: the Ki was less than 10 nM.
In the case of `CCN(CC)C(=O)C1CCCN(c2ccc(Nc3ncc4c(=O)n(-c5ccccc5Cl)c5nccn5c4n3)cc2)C1` (stereo not shown) [Example 252, 1-(4-{[6-(2-chlorophenyl)-5-oxo-5,6-dihydroimidazo[1,2-a]pyrimido[5,4-e]pyrimidin-2-yl]amino}phenyl)-N,N-diethylpiperidine-3-carboxamide] it was less than 10 nM; in that of `O=c1c2cnc(Nc3ccc(Cn4ccnc4)cc3)nc2n2ccnc2n1-c1ccccc1Cl` [Example 79, 6-(2-chlorophenyl)-2-{[4-(1H-imidazol-1-ylmethyl)phenyl]amino}imidazo[1,2-a]pyrimido[5,4-e]pyrimidin-5(6H)-one], less than 10 nM.
As for `O=c1c2cnc(Nc3ccc(C4CCCCC4)cc3)nc2n2ccnc2n1-c1ccccc1Cl` [Example 7, 6-(2-chlorophenyl)-2-[(4-cyclohexylphenyl)amino]imidazo[1,2-a]pyrimido[5,4-e]pyrimidin-5(6H)-one], the inhibitory constant (Ki) lay in the range of 10 to 100 nM.
Then `O=c1c2cnc(Nc3ccc4c(c3)CC(NCCF)C4)nc2n2ccnc2n1-c1c(Cl)cccc1Cl` (stereo not shown) [Example 296, 6-(2,6-dichlorophenyl)-2-({2-[(2-fluoroethyl)amino]-2,3-dihydro-1H-inden-5-yl}amino)imidazo[1,2-a]pyrimido[5,4-e]pyrimidin-5(6H)-one], with less than 10 nM.

One may read the Ki as the equilibrium dissociation constant of an inhibitor or competing ligand from its target.

The record behind these values is patent US8710065B2, “Tricyclic inhibitors of kinases” (AbbVie Inc., priority 2011, dated 2014).
